{"source": "patent US20250221413A1", "about": "“Use and Preparation Method of Sulfoxamyl, and Oxidation System” (priority 2023, published 2025)", "test_system": "Meloidogyne incognita", "experiment": "Indoor toxicity test against Meloidogyne incognita second-instar larvae (J2)", "conditions": "for LC50 / mortality at 3.1 µg/mL / mortality at 6.25 µg/mL / mortality at 12.5 µg/mL / mortality at 25 µg/mL / mortality at 50 µg/mL / mortality at 100 µg/mL: Meloidogyne incognita", "method": "Materials: the tested nematodes were collected from three different areas, namely cucumber crops in Dawenkou Town, Tai'an City, Shandong Province, and were all identified as southern root-knot nematodes (Meloidogyne incognita). The diseased roots were washed, cut into small sections of 0.5 cm to 1 cm, rinsed in 1% NaClO solution for about 30 s to 60 s, and rinsed with 200-mesh and 500-mesh sieves to collect nematode eggs for later use. The collected eggs were incubated at 25° C. using the Bayman funnel method and the second-instar larvae were collected 1 time per 24 h to ensure that the second-instar larvae selected each time were fresh and of consistent vitality.\nThe agent was 98% sulfoxamyl technical, and the comparison agents were 96% oxamyl technical and 87% fosthiazate technical.\nThe preparation for the agent was in accordance with the provisions for preparation of the liquid medicine in the Agricultural Industry Standard of the People's Republic of China NYT 1833.1-2009 “Guideline for laboratory bioassay of pesticides”, as shown in Table 6.\nMethods: according to the experimental plan, the test agent was diluted to different mass concentrations, and 0.5 mL of the agent solution and 0.5 mL of the nematode solution (containing about 100 nematodes) were added into a 24-well cell culture plate. The treatment with each concentration of the agent was repeated 4 times, and auxiliary agent control and blank control were also conducted. […]", "note": "Values joined by “and” are separate entries in the source; they are usually repeats but may differ in a detail not shown here. Equal values may be shown once. “Also recorded” adds a separate entry of the source. Read-outs that look alike come from different tables or passages of the source.", "data": [{"smiles": "CNC(=O)O/N=C(/C(=O)N(C)C)S(C)(=O)=O", "note": "[Sulfoxamyl, N,N-dimethyl-2-[[[(methylamino)carbonyl]oxy]imino]-2-(methylsulfonyl)acetamide]", "values": [{"measurement": "Corrected mortality", "setting": "50 mg/L, 24 h", "value": 82.02, "unit": "%"}, {"measurement": "Death count", "setting": "50 mg/L, 24 h", "value": "101 and 88 and 92"}, {"measurement": "Mortality", "setting": "50 mg/L, 24 h", "value": 82.24, "unit": "%"}, {"measurement": "Death count", "setting": "50 mg/L, 48 h", "value": "108 and 95 and 111 and 98"}, {"measurement": "Corrected mortality", "setting": "50 mg/L, 72 h", "value": 92.38, "unit": "%"}, {"measurement": "Death count", "setting": "50 mg/L, 72 h", "value": "115 and 99 and 120 and 101"}, {"measurement": "Mortality", "setting": "50 mg/L, 72 h", "value": 92.52, "unit": "%"}, {"measurement": "Death count", "setting": "100 mg/L, 24 h", "value": "105 and 102 and 120 and 107"}, {"measurement": "Death count", "setting": "100 mg/L, 48 h", "value": "108 and 102 and 121"}, {"measurement": "Death count", "setting": "100 mg/L, 72 h", "value": "109 and 102 and 121 and 108"}, {"measurement": "LC90", "setting": "24 h", "value": 52.89, "unit": "µg/mL"}, {"measurement": "LC90", "setting": "48 h", "value": 56.41, "unit": "µg/mL"}, {"measurement": "LC90", "setting": "72 h", "value": 36.84, "unit": "µg/mL"}, {"measurement": "LC50", "setting": "24 h", "value": 12.5, "unit": "µg/mL"}, {"measurement": "mortality at 3.1 µg/mL", "setting": "24 h, 3.1 mg/L", "value": 14.4, "unit": "%"}, {"measurement": "mortality at 6.25 µg/mL", "setting": "24 h, 6.25 mg/L", "value": 16.4, "unit": "%"}, {"measurement": "mortality at 12.5 µg/mL", "setting": "24 h, 12.5 mg/L", "value": 51.4, "unit": "%"}, {"measurement": "mortality at 25 µg/mL", "setting": "24 h, 25 mg/L", "value": 66.1, "unit": "%"}, {"measurement": "mortality at 50 µg/mL", "setting": "24 h, 50 mg/L", "value": 86.3, "unit": "%"}, {"measurement": "mortality at 100 µg/mL", "setting": "24 h, 100 mg/L", "value": 96.3, "unit": "%"}, {"measurement": "mortality at 3.1 µg/mL", "setting": "24 h, read-out: Corrected mortality, 3.1 mg/L, 24 h", "value": 13.4, "unit": "%"}, {"measurement": "mortality at 6.25 µg/mL", "setting": "24 h, read-out: Corrected mortality, 6.25 mg/L, 24 h", "value": 15.3, "unit": "%"}, {"measurement": "mortality at 12.5 µg/mL", "setting": "24 h, read-out: Corrected mortality, 12.5 mg/L, 24 h", "value": 50.8, "unit": "%"}, {"measurement": "mortality at 25 µg/mL", "setting": "24 h, read-out: Corrected mortality, 25 mg/L, 24 h", "value": 65.7, "unit": "%"}, {"measurement": "mortality at 50 µg/mL", "setting": "24 h, read-out: Corrected mortality, 50 mg/L, 24 h", "value": 86.2, "unit": "%"}, {"measurement": "mortality at 100 µg/mL", "setting": "24 h, read-out: Corrected mortality, 100 mg/L, 24 h", "value": 96.3, "unit": "%"}, {"measurement": "LC50", "setting": "48 h", "value": 10.2, "unit": "µg/mL"}, {"measurement": "mortality at 3.1 µg/mL", "setting": "48 h, 3.1 mg/L", "value": 20.2, "unit": "%"}, {"measurement": "mortality at 6.25 µg/mL", "setting": "48 h, 6.25 mg/L", "value": 31, "unit": "%"}, {"measurement": "mortality at 12.5 µg/mL", "setting": "48 h, 12.5 mg/L", "value": 61.5, "unit": "%"}, {"measurement": "mortality at 25 µg/mL", "setting": "48 h, 25 mg/L", "value": 66.1, "unit": "%"}, {"measurement": "mortality at 50 µg/mL", "setting": "48 h, 50 mg/L", "value": 92.3, "unit": "%"}, {"measurement": "mortality at 100 µg/mL", "setting": "48 h, 100 mg/L", "value": 99.1, "unit": "%"}, {"measurement": "mortality at 3.1 µg/mL", "setting": "48 h, read-out: Corrected mortality, 3.1 mg/L, 48 h", "value": 19, "unit": "%"}, {"measurement": "mortality at 6.25 µg/mL", "setting": "48 h, read-out: Corrected mortality, 6.25 mg/L, 48 h", "value": 30, "unit": "%"}, {"measurement": "mortality at 12.5 µg/mL", "setting": "48 h, read-out: Corrected mortality, 12.5 mg/L, 48 h", "value": 60.9, "unit": "%"}, {"measurement": "mortality at 25 µg/mL", "setting": "48 h, read-out: Corrected mortality, 25 mg/L, 48 h", "value": 65.6, "unit": "%"}, {"measurement": "mortality at 50 µg/mL", "setting": "48 h, read-out: Corrected mortality, 50 mg/L, 48 h", "value": 92.2, "unit": "%"}, {"measurement": "mortality at 100 µg/mL", "setting": "48 h, read-out: Corrected mortality, 100 mg/L, 48 h", "value": 99.1, "unit": "%"}, {"measurement": "LC50", "setting": "72 h", "value": 7.41, "unit": "µg/mL"}, {"measurement": "mortality at 3.1 µg/mL", "setting": "72 h, 3.1 mg/L", "value": 37.5, "unit": "%"}, {"measurement": "mortality at 6.25 µg/mL", "setting": "72 h, 6.25 mg/L", "value": 35.3, "unit": "%"}, {"measurement": "mortality at 12.5 µg/mL", "setting": "72 h, 12.5 mg/L", "value": 65.1, "unit": "%"}, {"measurement": "mortality at 25 µg/mL", "setting": "72 h, 25 mg/L", "value": 66.1, "unit": "%"}, {"measurement": "mortality at 50 µg/mL", "setting": "72 h, 50 mg/L", "value": 98.3, "unit": "%"}, {"measurement": "mortality at 100 µg/mL", "setting": "72 h, 100 mg/L", "value": 100, "unit": "%"}, {"measurement": "mortality at 3.1 µg/mL", "setting": "72 h, read-out: Corrected mortality, 3.1 mg/L, 72 h", "value": 36.3, "unit": "%"}, {"measurement": "mortality at 6.25 µg/mL", "setting": "72 h, read-out: Corrected mortality, 6.25 mg/L, 72 h", "value": 34.1, "unit": "%"}, {"measurement": "mortality at 12.5 µg/mL", "setting": "72 h, read-out: Corrected mortality, 12.5 mg/L, 72 h", "value": 64.5, "unit": "%"}, {"measurement": "mortality at 25 µg/mL", "setting": "72 h, read-out: Corrected mortality, 25 mg/L, 72 h", "value": 65.5, "unit": "%"}, {"measurement": "mortality at 50 µg/mL", "setting": "72 h, read-out: Corrected mortality, 50 mg/L, 72 h", "value": 98.3, "unit": "%"}, {"measurement": "mortality at 100 µg/mL", "setting": "72 h, read-out: Corrected mortality, 100 mg/L, 72 h", "value": 100, "unit": "%"}, {"measurement": "killing (indoor nematicidal) activity against Meloidogyne incognita J2, in words", "setting": "compared with oxamyl and fosthiazate", "value": "high killing activity; also recorded: higher than that of oxamyl; also recorded: higher than that of fosthiazate"}]}]}
